In assay [1] the target is T1, Neuronal acetylcholine receptor subunit alpha-7 (Rattus norvegicus, UniProt Q05941). The experiment in a line: In vitro binding affinity towards Nicotinic acetylcholine receptor alpha7 using [125I]alpha-bungarotoxin in rat brain. The class given is tissue-based.
Assay [2] has as its target T1, Neuronal acetylcholine receptor subunit alpha-7. The experiment in a line: biochemical.
Description: In vitro binding affinity towards Nicotinic acetylcholine receptor alpha7 using [125I]-alpha-Bungarotoxin in rat brain

Here are results for seven molecules from ChEMBL document CHEMBL1134328 (J Med Chem, 2001).

Where only a bound is given, the exact number is not on record here.

T1 sequence (Q05941 whole entry): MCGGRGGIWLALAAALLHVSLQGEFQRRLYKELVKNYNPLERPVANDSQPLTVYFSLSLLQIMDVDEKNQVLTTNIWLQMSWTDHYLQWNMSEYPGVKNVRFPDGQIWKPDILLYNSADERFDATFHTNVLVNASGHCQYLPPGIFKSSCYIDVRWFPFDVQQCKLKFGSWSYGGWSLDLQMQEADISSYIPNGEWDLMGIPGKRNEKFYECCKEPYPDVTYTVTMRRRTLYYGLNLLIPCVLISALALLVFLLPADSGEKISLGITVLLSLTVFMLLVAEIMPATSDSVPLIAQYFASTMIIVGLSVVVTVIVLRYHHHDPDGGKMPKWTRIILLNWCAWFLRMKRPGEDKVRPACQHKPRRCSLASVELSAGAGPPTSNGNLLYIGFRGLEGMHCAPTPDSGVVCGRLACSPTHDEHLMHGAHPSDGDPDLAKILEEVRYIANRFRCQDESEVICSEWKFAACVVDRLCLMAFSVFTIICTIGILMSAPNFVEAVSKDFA

`CN1CCCC[C@H]1[C@H]1CCc2ccccc2O1` (racemic) showed a Ki in assay [1] above 10 µM.
On the same count and under the same terms, the result for `CN1CCCC[C@H]1[C@@H]1CCc2cc(O)ccc2O1` (racemic) reads above 10 µM; that for `CN1CCCC[C@H]1[C@H]1CCc2cc(O)ccc2O1` (racemic), above 10 µM; that for `CN1CCCC[C@H]1[C@@H]1CCc2ccccc2O1` (racemic), above 10 µM.
Still for that read-out and setting: to `Cc1ncccc1OCC1CCCN1` (single isomer, unassigned; form 1) [POZANICLINE] belongs above 10 µM.
`Cc1ncccc1OCC1CCCN1` (single isomer, unassigned; form 2) displayed a Ki in assay [1] above 10 µM.
For the molecule `O=c1cccc2n1C[C@@H]1CNC[C@H]2C1` [CYTISINICLINE], in assay [2], the Ki came to 0.0009 µM.

Broadly, the Ki is a dissociation constant, usually derived from enzyme kinetics or from competition with a known ligand.
